The values that follow come from the supplement of paper PMC11061612.

Holding throughout (experiment): Bliss excess, mean over the matrix (fraction); higher = more synergy
Assay [1] concerns MDA-MB-361 (Breast Carcinoma). In outline:
(§1)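 Bliss excess equals the observed combination effect minus the expected value EA + EB − EA·EB, where EA and EB are the effects of each agent alone. Combination Emax is the second-highest inhibition within the matrix. Inhibition was scaled from CellTiter-Glo 2.0 luminescence, with 0 set by vehicle wells and 1 by blank wells, after 72 hours of two-drug dosing of cells plated in 1536-well plates.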

Assay [2] concerns TCCSUP (Bladder Carcinoma). In outline:
as §1

Assay [3] relates to HT-1376 (Bladder Carcinoma). Put shortly:
as §1

Assay [4] deals with MFE-296 (Endometrial Carcinoma). Put shortly:
as §1

In assay [5] the test system is KP-1N (Pancreatic Carcinoma). In outline: as §1
Assay [6] relates to LNCaP-Clone-FGC (Prostate Carcinoma). Put shortly:
as §1

The subject of the next assay is NOS-1 (Osteosarcoma). In outline: as §1
A further assay deals with NB10 (Neuroblastoma). In outline:
as §1

Assay [7] has as its system B-CPAP (Thyroid Gland Carcinoma). In outline: as §1
The test system of assay [8] is LS-180 (Colorectal Carcinoma). Put shortly: as §1
The test system of assay [9] is UM-UC-3 (Bladder Carcinoma). In outline:
as §1

Assay [10] relates to HCC1806 (Breast Carcinoma). In outline:
as §1

The subject of assay [11] is Calu-3 (Lung Adenocarcinoma). Put shortly:
as §1

In assay [12] the test system is CaR-1 (Colorectal Carcinoma). In outline:
as §1

Assay [13] concerns SK-ES-1 (Ewing's Sarcoma). In outline:
as §1

Assay [14] deals with DoTc2-4510 (Cervical Carcinoma). Put shortly: as §1
For assay [15], the system named is HuP-T4 (Pancreatic Carcinoma). Put shortly: as §1
Assay [16] concerns NCI-H2085 (Non-Small Cell Lung Carcinoma). Put shortly:
as §1

Assay [17] deals with Ramos-2G6-4C10 (Burkitt's Lymphoma). In outline: as §1
For a further assay, the system named is ES4 (Ewing's Sarcoma). In outline:
as §1

Take `COc1cc2c(cc1OCCCCCOc1cc3c(cc1OC)C(=O)N1C=C(C)C[C@H]1C=N3)N=C[C@@H]1CC(C)=CN1C2=O` [SG3199] + O=C(c1cc(Cc2n[nH]c(=O)c3ccccc23)ccc1F)N1CCN(C(=O)C2CC2)CC1 [Olaparib] (first compound max 0.001 µM, 7x7, partner max 10 µM): the Bliss excess in [1] is -0.035; in assay [2] it was -0.0281; in [3] it was -0.0503; in assay [4], -0.0639; in [5] it was 0.0163; in [6], 0.0189. Also, the Bliss excess was -0.0275 with NOS-1 (Osteosarcoma); -0.0067 in the assay with NB10 (Neuroblastoma); 0.0434 in assay [7]; -0.0525 in assay [8]; -0.0308 in [9]; -0.0132 in assay [10]. The Bliss excess in assay [11] was -0.0266; in [12], -0.0429; in assay [13], -0.0326; in [14], -0.0123; in assay [15], -0.0256; in assay [16] it was -0.0323. Also, the figures for the Bliss excess (in [17]; in the assay on ES4 (Ewing's Sarcoma)) were -0.0122 and -0.0097, respectively.

As to `CCc1c2c(nc3ccc(O)cc13)-c1cc3c(c(=O)n1C2)COC(=O)[C@]3(O)CC` [SN-38] + CN(C)CCCOc1ccc(-c2ccc3ncc4c(c3c2)n(C2CCOCC2)c(=O)n4C)cn1 [AZD0156] (first compound max 0.3 µM, 7x7, partner max 1 µM), the Bliss excess is -0.063 in [1]; 0.0859 in assay [2]; -0.0547 in [3]; -0.0007 in assay [4]; 0.0531 in assay [5]; -0.0804 in assay [6]. The Bliss excess is -0.0111 in the assay with NOS-1 (Osteosarcoma); -0.0533 in the assay on NB10 (Neuroblastoma); 0.0105 in assay [7]; 0.0439 in assay [8]; 0.06 in [9]; -0.0222 in assay [10]. The Bliss excess in assay [11] is 0.0092; in assay [12] it was 0.0109; in assay [13] it was 0.0037; in assay [14] it was 0.0091; in assay [15], 0.0028; in assay [16], -0.0026. Moreover, the Bliss excess was 0.0361 in assay [17] and 0.0523 with ES4 (Ewing's Sarcoma).

Regarding `C[C@@H](c1ccc2nccn2c1)n1nnc2ncc(-c3cnn(C)c3)nc21` [Savolitinib] + CC1(C)CCC(CN2CCN(c3ccc(C(=O)NS(=O)(=O)c4ccc(NCC5CCOCC5)c([N+](=O)[O-])c4)c(Oc4cnc5[nH]ccc5c4)c3)CC2)=C(c2ccc(Cl)cc2)C1 [Venetoclax] (first compound max 1 µM, 7x7, partner max 1 µM), the Bliss excess in [1] is -0.0349; in assay [2] it was -0.0551; in [3], -0.0443; in [4], -0.0427; in [5] it was -0.0646; in [6], -0.0593. In addition, the Bliss excess in the assay on NOS-1 (Osteosarcoma) is -0.05; in the assay with NB10 (Neuroblastoma) it was -0.0389; in assay [7], -0.0453; in [8], -0.0201; in assay [9], -0.0574; in assay [10], -0.0367. Besides, the Bliss excess was -0.0347 in [11]; -0.0617 in assay [12]; -0.0545 in assay [13]; -0.0601 in assay [14]; -0.0575 in assay [15]; -0.0364 in assay [16]. The values for the Bliss excess (in assay [17]; with ES4 (Ewing's Sarcoma)) were -0.0183 and -0.0443, respectively.

On to `C[C@@H](c1ccc2nccn2c1)n1nnc2ncc(-c3cnn(C)c3)nc21` [Savolitinib] + Cc1c2c(nn1C)CSCc1cc(n(C)n1)CSc1cc(c3ccccc3c1)OCCCc1c(C(=O)O)n(C)c3c-2c(Cl)ccc13 [AZD5991] (first compound max 1 µM, 7x7, partner max 1 µM), for which the Bliss excess in assay [1] was -0.0841; in assay [2] it was -0.0262; in [3], -0.0206; in [4], -0.0228; in assay [5], -0.0637; in assay [6], -0.0148. The Bliss excess in the assay with NOS-1 (Osteosarcoma) is -0.059; in the assay with NB10 (Neuroblastoma) it was -0.0278; in [7] it was -0.0221; in [8] it was -0.015; in [9] it was -0.0161; in [10], 0.0014. Also, the Bliss excess in [11] is -0.021; in assay [12] it was -0.0725; in [13], -0.0326; in [14], -0.0204; in assay [15] it was -0.0618; in assay [16], -0.0401. Further, the Bliss excess in [17] was 0.0002; in the assay on ES4 (Ewing's Sarcoma) it was -0.0724.

For `Cn1cnc2c(F)c(Nc3ccc(Br)cc3Cl)c(C(=O)NOCCO)cc21` [Selumetinib] + C=CCn1c(=O)c2cnc(Nc3ccc(N4CCN(C)CC4)cc3)nc2n1-c1cccc(C(C)(C)O)n1 [AZD1775] (first compound max 10 µM, partner max 1 µM), the Bliss excess in assay [1] is -0.053; in [2] it was -0.0432; in assay [3] it was -0.0093; in [4] it was -0.059; in assay [5] it was -0.0298; in assay [6], -0.15. Besides, the Bliss excess in the assay on NOS-1 (Osteosarcoma) was 0.0355; in the assay on NB10 (Neuroblastoma) it was -0.0125; in assay [7], -0.0704; in assay [8], -0.0585; in assay [9] it was -0.0187; in [10], 0.0042. Further, the Bliss excess in assay [11] was -0.0405; in [12], -0.0218; in [13], -0.0706; in assay [14] it was -0.0164; in assay [15] it was 0.0161; in [16], -0.0751. Moreover, the Bliss excess was -0.0956 in assay [17] and -0.0679 with ES4 (Ewing's Sarcoma).

Regarding `Cn1cnc2c(F)c(Nc3ccc(Br)cc3Cl)c(C(=O)NOCCO)cc21` [Selumetinib] + CC(C)n1c(=O)n(C)c2cnc3cc(F)c(-c4ccc(OCCCN5CCCCC5)nc4)cc3c21 [AZD1390] (first compound max 10 µM, 7x7, partner max 0.3 µM), the Bliss excess in [1] is -0.044; in [2], -0.0588; in [3] it was -0.0416; in [4] it was -0.0529; in [5], -0.0532; in assay [6], -0.0381. Moreover, the Bliss excess is 0.0117 in the assay with NOS-1 (Osteosarcoma); -0.0323 in the assay on NB10 (Neuroblastoma); -0.0222 in assay [7]; -0.0519 in assay [8]; -0.0205 in assay [9]; -0.0029 in assay [10]. For the same compound, the Bliss excess in [11] is -0.023; in assay [12], -0.041; in assay [13], -0.0246; in assay [14], -0.0401; in [15] it was -0.0086; in assay [16], -0.06. The Bliss excess is -0.0211 in assay [17] and -0.0515 in the assay on ES4 (Ewing's Sarcoma).
